Experimental data published in paper PMC9286316, “Importance of the Cyclic Cystine Knot Structural Motif for Immunosuppressive Effects of Cyclotides” (ACS Chemical Biology, 2021).

Test system: human PBMCs
Test: Lymphocyte proliferation assay (CFSE, anti-CD3/anti-CD28 stimulated PBMC, flow cytometry)
Assay type: cell-based
Conditions: 72 h; for antiproliferative activity (Figure 2B): tested concentration range 1–100 μg/mL peptide, three biological replicates
Procedure: Blood of healthy donors was obtained from the Blood Transfusion Centre (University Medical Centre Freiburg, Freiburg Germany), and all experiments conducted on human material were approved by the ethics committee of the University Freiburg (55/14). Venous blood was centrifuged to isolate peripheral blood mononuclear cells on a LymphoPrep gradient (density: 1.077 g/cm^3, 20 min, 500 × g, 20 °C; Progen, Heidelberg, Germany). PBMCs were collected and washed twice with phosphate buffer saline (PBS; GE Healthcare, München), and cell viability and concentration were determined using the trypan blue exclusion test. Cells were cultured in RPMI 1640 medium supplemented with 10% heat-inactivated fetal calf serum, 2 mM L-glutamine, 100 U/mL penicillin, and […] streptomycin (all from Life Technologies, Paisley, UK) and cultured at 37 °C in a humidified incubator with a 5% CO2/95% air atmosphere.
Harvested PBMC were washed twice in cold PBS and resuspended in PBS at a concentration of 5 × 10^6 cells per mL. Carboxyfluorescein diacetate succinimidyl ester (CFSE; 5 μM; Sigma-Aldrich, St. Louis, MO) staining was performed to determine T-cell proliferation. Cells were stained with CFSE and incubated for 10 min at 37 °C. The staining reaction was stopped by washing twice with complete growth medium. Afterward, stained cells were stimulated with anti-human CD3 (clone OKT3) and anti-human CD28 (clone 28.6) mAbs (each 100 ng/mL; both from eBioscience, Frankfurt, Germany) treated as indicated in the figure legends, with medium alone, cyclosporine A (CsA; 5 μg/mL, purity ≥99%, Sandimmun 50 mg/mL, Novartis Pharma, Basel, Switzerland), camptothecin (CPT; 300 μM; purity >98%; Tocris, Bristol, UK), or in the presence of the indicated concentrations of peptides for 72 h at 37 °C in a humidified incubator with a 5% CO2/95% air atmosphere. Cell division progress was analyzed by flow cytometric analysis using a FACS Calibur analyzer (BD Bioscience, Becton Dickinson, Franklin Lakes, NJ). Data were generated using FlowJo software. For further analysis of FACS raw data Microsoft Excel and SPSS software (IBM, Version 22.0, Armonk, USA) were applied. All bioactivity data are represented as mean ± standard deviation (SD) for the indicated number of independent experiments. Statistical significance was determined by a one-way ANOVA followed by Dunnett’s post hoc pairwise comparisons. The asterisks (*p < 0.05, **p < 0.01, ***p < 0.001) represent significant differences from the respective control.

| Compound | antiproliferative activity (Figure 2B) | antiproliferative activity (Figure 1D) (tested concentration range up to 10 μM (∼29 μg/mL), mean ± SD of three biological replicates relative to stimulated control) |
| --- | --- | --- |
| CCN1C(=O)CC(SC[C@@H]2NC(=O)CNC(=O)[C@@H]3CCCN3C(=O)[C@H]([C@@H](C)O)NC(=O)[C@H](CC(N)=O)NC(=O)[C@H](CSC3CC(=O)N(CC)C3=O)NC(=O)[C@H]([C@@H](C)O)NC(=O)CNC(=O)CNC(=O)[C@H](C(C)C)NC(=O)[C@H](CSC3CC(=O)N(CC)C3=O)NC(=O)[C@H]([C@@H](C)O)NC(=O)[C@H](CCC(=O)O)NC(=O)CNC(=O)[C@H](CSC3CC(=O)N(CC)C3=O)NC(=O)[C@H](C(C)C)NC(=O)[C@@H]3CCCN3C(=O)[C@H](CC(C)C)NC(=O)CNC(=O)[C@H](CC(N)=O)NC(=O)[C@H](CCCNC(=N)N)NC(=O)[C@H]([C@@H](C)O)NC(=O)[C@H](CSC3CC(=O)N(CC)C3=O)NC(=O)[C@H](C(C)C)NC(=O)[C@@H]3CCCN3C(=O)[C@H](Cc3c[nH]c4ccccc34)NC(=O)[C@H](CO)NC(=O)[C@H](CSC3CC(=O)N(CC)C3=O)NC(=O)[C@H](CCCCN)NC2=O)C1=O (stereo partly shown) [T20K-Nem] | total loss of antiproliferative activity |  |
| CC(C)C[C@@H]1NC(=O)CNC(=O)[C@H](CC(N)=O)NC(=O)[C@H](CCCNC(=N)N)NC(=O)[C@H]([C@@H](C)O)NC(=O)[C@H](CSCC(N)=O)NC(=O)[C@H](C(C)C)NC(=O)[C@@H]2CCCN2C(=O)[C@H](Cc2c[nH]c3ccccc23)NC(=O)[C@H](CO)NC(=O)[C@H](CSCC(N)=O)NC(=O)[C@H](CCCCN)NC(=O)[C@H](CSCC(N)=O)NC(=O)CNC(=O)[C@@H]2CCCN2C(=O)[C@H]([C@@H](C)O)NC(=O)[C@H](CC(N)=O)NC(=O)[C@H](CSCC(N)=O)NC(=O)[C@H]([C@@H](C)O)NC(=O)CNC(=O)CNC(=O)[C@H](C(C)C)NC(=O)[C@H](CSCC(N)=O)NC(=O)[C@H]([C@@H](C)O)NC(=O)[C@H](CCC(=O)O)NC(=O)CNC(=O)[C@H](CSCC(N)=O)NC(=O)[C@H](C(C)C)NC(=O)[C@@H]2CCCN2C1=O [T20K-Acm] | total loss of antiproliferative activity |  |
| CSSC[C@@H]1NC(=O)CNC(=O)[C@@H]2CCCN2C(=O)[C@H]([C@@H](C)O)NC(=O)[C@H](CC(N)=O)NC(=O)[C@H](CSSC)NC(=O)[C@H]([C@@H](C)O)NC(=O)CNC(=O)CNC(=O)[C@H](C(C)C)NC(=O)[C@H](CSSC)NC(=O)[C@H]([C@@H](C)O)NC(=O)[C@H](CCC(=O)O)NC(=O)CNC(=O)[C@H](CSSC)NC(=O)[C@H](C(C)C)NC(=O)[C@@H]2CCCN2C(=O)[C@H](CC(C)C)NC(=O)CNC(=O)[C@H](CC(N)=O)NC(=O)[C@H](CCCNC(=N)N)NC(=O)[C@H]([C@@H](C)O)NC(=O)[C@H](CSSC)NC(=O)[C@H](C(C)C)NC(=O)[C@@H]2CCCN2C(=O)[C@H](Cc2c[nH]c3ccccc23)NC(=O)[C@H](CO)NC(=O)[C@H](CSSC)NC(=O)[C@H](CCCCN)NC1=O [T20K-S-methyl] | total loss of antiproliferative activity |  |
| GLPVCGETCVGGTCNTPGCKCSWPVCTR↓N (head to tail) [cyclic reduced T20K] |  | lost activity |
